Test results from US9689040B2, “Selective inhibitors of tumor-initiating cells” (Children's Medical Center Corporation, priority 2011, dated 2017).

Tests used:
[1] = tested on: BPLER cells; assay: Genome-wide siRNA lethality screen (primary screen), CellTiterGlo viability; type: cell-based, human; conditions: for MAD BPLER / Fold BPLER: siRNA pool against the gene; for MAD BPLER: MAD score of viability in BPLER cells; for Fold BPLER: fold viability in BPLER cells; for Ratio: R, BPLER versus HMLER, primary screen
[2] = tested on: HMLER cells; assay: as above; type: cell-based, human; conditions: for MAD_HMLER / Fold_HMLER: primary screen, HMLER cells; for MAD_HMLER: MAD score; for MAD HMLER: MAD score of viability in HMLER cells; for Fold HMLER: fold viability in HMLER cells
[3] = tested on: BPLER cells; assay: Secondary (cherry-pick) screen with the 4 individual siRNAs of each pool; conditions: for Cherry_Score: secondary cherry-pick screen, 4 individual siRNAs of each pool
[4] = ratio of Fold_BPLER to Fold_HMLER
[5] = ratio of fold viability BPLER/HMLER
[6] = siRNA pool against the gene, fold viability
[7] = secondary screen with the 4 individual siRNAs of each pool
[8] = validation screen with individual siRNAs of each pool

Row | Molecule | Ratio BPLER/HMLER [1, 4] | Ratio BPLER/HMLER [1, 5] | MAD BPLER [1] | Fold BPLER [1] | MAD_HMLER ([2]; siRNA pool against the gene) | Fold_HMLER [2, 6] | MAD HMLER ([2]; siRNA pool against the gene) | Fold HMLER ([2]; siRNA pool against the gene) | Cherry_Score [3] | Cherry Score [3, 7] | Ratio [1] | Fold_HMLER ([2]; siRNA pool) | Cherry Score [3, 8]
1 | STIM2 | 0.72 | 0.72 | −2.39 | 0.597 | −0.99 | 0.83 | −0.99 | 0.83 | 2 | 2 | – | – | –
2 | SLC24A3 | 0.72 | 0.72 | −2.23 | 0.637 | −0.75 | 0.88 | −0.75 | 0.88 | 1 | 1 | – | – | –
3 | NM_152496 | – | – | – | – | – | – | – | – | – | – | 0.72 | 0.64 | 1
4 | NM_148571 | – | – | – | – | – | – | – | – | – | – | 0.73 | 0.81 | 1
5 | NUP205 | 0.73 | 0.73 | −2.88 | 0.544 | −1.57 | 0.75 | −1.57 | 0.75 | 3 | 3 | – | – | –
6 | USP39 | 0.70 | 0.70 | −2.13 | 0.695 | −0.04 | 0.99 | −0.04 | 0.99 | 2 | 2 | – | – | –
7 | NM_152655 | – | – | – | – | – | – | – | – | – | – | 0.72 | 0.89 | 2
8 | NM_152374 | – | – | – | – | – | – | – | – | – | – | 0.72 | 0.97 | 2
9 | NM_032916 | – | – | – | – | – | – | – | – | – | – | 0.70 | 0.70 | 2
10 | NOSTRIN | 0.67 | 0.67 | −2.06 | 0.604 | −0.69 | 0.90 | −0.69 | 0.90 | 1 | 1 | – | – | –
11 | NM_134444 | – | – | – | – | – | – | – | – | – | – | 0.69 | 1.01 | 1
12 | SETX | 0.70 | 0.70 | −2.40 | 0.617 | −0.72 | 0.89 | −0.72 | 0.89 | 1 | 1 | – | – | –
13 | POLA1 | 0.74 | 0.74 | −2.01 | 0.724 | −0.17 | 0.97 | −0.17 | 0.97 | 3 | 3 | – | – | –
14 | TUT1 | 0.69 | 0.69 | −1.91 | 0.680 | −0.07 | 0.99 | −0.07 | 0.99 | 2 | 2 | – | – | –
15 | NM_052946 | – | – | – | – | – | – | – | – | – | – | 0.67 | 0.90 | 1
16 | NM_174931 (nucleic acid, listed as Homo sapiens) DNA: AATAGAGTCTGCACTAGGAAACTGGTGGGAGCCGAGGTCCGGAAGTCCGACGCTGGTCGGTGGGCGCATGCGCAGCGCGCGCTCTACGGCGCTGAACCGGGGCGAGCAGAGAGCTGTCAGATACTATAGCCATATGAAGTTGAACATGGCAGAAGAAGAGGACTATATGTCTGATTCCTTCATTAATGTCCAAGAAGATATCAGACCAGGATTGCCAATGCTAAGGCAAATCCGAGAAGCCCGTCGAAAAGAAGAAAAGCAACAGGAAGCCAATTTGAAAAACAGGCAGAAGAGTTTAAAAGAAGAAGAACAAGAAAGACGTGACATTGGGTTGAAGAATGCACTAGGCTGTGAAAACAAAGGGTTTGCCTTGCTCCAAAAGATGGGCTATAAAAGTGGTCAGGCACTTGGCAAGAGTGGGGGTGGTATTGTTGAACCAATTCCTCTCAATATCAAAACAGGGAAAAGTGGCATTGGTCATGAGGCATCATTAAAACGGAAAGCAGAGGAAAAATTGGAAAGCTACAGAAAAAAGATTCACATGAAAAACCAAGCTGAAGAAAAAGCTGCAGAACAGTTTCGAATGCGACTTAAAAATAAGCAAGATGAAATGAAGCTAGAAGGAGATCTCAGAAGAAGCCAGCGAGCCTGTCAACAACTGGATGTCCAGAAAAATATTCAGGTTCCCAGGGAAGCATGGTACTGGTTGAGGCTTGAAGAGGAGACTGAAGAAGATGAAGAAGAAAAAGAACAGGATGAAGATGAATATAAGAGTGAAGATTTAAGCGTACTGGAAAAATTACAAATATTGACTAGTTATTTAAGAGAAGAACATCTATATTGTATTTGGTGTGGAACAGCCTATGAAGATAAAGAAGACCTATCTTCAAATTGTCCAGGACCAACTTCTGCAGATCATGACTAAGATTATTCCCAATAAAGTGGAAACTTGAAAAATGTTATTACTTCCTAGGGATAGACAATTTAGCAGTTGGAAATCTCAAATTTTTTATGCCAGTAAAGAAAGGGGGACTTTATATAATGTTTTGTTCTTTTTGTACTTTAGAATATGAATGTTCATTGACTTGAAAAAAATAATGCAATGGCATTTCAGAACACAAGTATCACAGAGATGGACAGTTACAATTTATTGCTATATTGTGATACGTGAGGGGTTTAAGGACACCAACAGGTAACTTCTTATTCCCCTCTTCACTTTGGAACAAATTGAGAAATAAGAAATGGGAGTCAGAGGAA | – | – | – | – | – | – | – | – | – | – | 0.72 | 0.65 | 1
